Results: ChEMBL document CHEMBL5390235, “Reading and erasing of histone crotonyllysine mimics by the AF9 YEATS domain and SIRT2 deacylase” (Bioorg Med Chem, 2023)
Active and inactive are the calls of the source. No cut-off for these calls is given here.

Tests used:
[1] = target: T1, Protein AF-9 (Homo sapiens, UniProt P42568); assay: Binding affinity to N-terminal His-tagged recombinant human AF9 YEATS domain (1 to 138 residues) expressed in Escherichia coli 2(DE3)pLysS cells assessed as dissociation constant by ITC assay
T1 sequence (P42568 whole entry): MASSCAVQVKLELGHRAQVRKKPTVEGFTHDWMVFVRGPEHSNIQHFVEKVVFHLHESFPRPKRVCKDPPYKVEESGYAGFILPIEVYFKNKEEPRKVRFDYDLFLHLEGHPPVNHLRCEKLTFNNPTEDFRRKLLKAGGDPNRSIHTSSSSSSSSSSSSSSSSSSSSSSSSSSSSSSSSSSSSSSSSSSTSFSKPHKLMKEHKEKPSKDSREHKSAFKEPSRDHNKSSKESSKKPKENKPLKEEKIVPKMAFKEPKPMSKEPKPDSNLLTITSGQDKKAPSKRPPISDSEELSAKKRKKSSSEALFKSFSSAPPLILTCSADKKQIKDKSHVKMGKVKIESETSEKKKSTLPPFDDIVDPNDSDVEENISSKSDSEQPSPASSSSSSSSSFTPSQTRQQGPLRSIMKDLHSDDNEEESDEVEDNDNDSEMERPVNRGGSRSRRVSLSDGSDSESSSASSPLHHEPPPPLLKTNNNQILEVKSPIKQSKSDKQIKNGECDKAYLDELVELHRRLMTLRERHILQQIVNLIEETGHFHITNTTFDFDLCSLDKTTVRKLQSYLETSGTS

[2] = target: T2, NAD-dependent protein deacetylase sirtuin-2 (Homo sapiens) (UniProt Q8IXJ6); assay: Induction of recombinant human SIRT2 (50 to 356 residues) deacetylase activity measured after 24 hrs in presence of NAD+ by MALDI-TOF-MS analysis
T2 sequence (whole entry): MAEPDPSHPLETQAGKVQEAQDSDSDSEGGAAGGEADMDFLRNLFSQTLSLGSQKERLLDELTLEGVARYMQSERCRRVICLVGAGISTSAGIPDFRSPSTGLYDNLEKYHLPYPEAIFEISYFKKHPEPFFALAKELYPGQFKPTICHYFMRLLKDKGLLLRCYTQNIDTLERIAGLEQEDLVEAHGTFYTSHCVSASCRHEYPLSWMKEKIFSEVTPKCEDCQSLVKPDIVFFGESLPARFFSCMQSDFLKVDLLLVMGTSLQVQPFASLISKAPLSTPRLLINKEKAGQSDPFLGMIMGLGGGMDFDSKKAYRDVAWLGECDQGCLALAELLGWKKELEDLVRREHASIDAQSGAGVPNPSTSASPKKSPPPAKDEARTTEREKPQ

[3] = target: T2, NAD-dependent protein deacetylase sirtuin-2 (Homo sapiens); assay: Induction of recombinant human SIRT2 (50 to 356 residues) deacetylase activity measured after 6 hrs in presence of NAD+ by MALDI-TOF-MS analysis; parameters: concentration or dose not given beside the values

| Kd [1] [µM] | Activity [2] | Activity [3] [%] | Activity ([2]; filed as activator) [%] | Activity ([3]; filed as activator) [%] | Compound |
| --- | --- | --- | --- | --- | --- |
| 48.5 | inactive |  |  |  | C[C@H](NC(=O)[C@H](CCCCN)NC(=O)CNC(=O)CNC(=O)[C@@H](NC(=O)[C@H](CO)NC(=O)[C@H](CCCCNC(=O)/C=C/C(F)(F)F)NC(=O)[C@H](CCCNC(=N)N)NC(=O)[C@H](C)NC(=O)[C@@H](NC(=O)[C@H](CCC(N)=O)NC(=O)[C@H](CCCCN)NC(=O)[C@@H](N)[C@@H](C)O)[C@@H](C)O)[C@@H](C)O)C(=O)O |
| 20.5 |  | 30 | 50 |  | CC#CC(=O)NCCCC[C@H](NC(=O)[C@H](CCCNC(=N)N)NC(=O)[C@H](C)NC(=O)[C@@H](NC(=O)[C@H](CCC(N)=O)NC(=O)[C@H](CCCCN)NC(=O)[C@@H](N)[C@@H](C)O)[C@@H](C)O)C(=O)N[C@@H](CO)C(=O)N[C@H](C(=O)NCC(=O)NCC(=O)N[C@@H](CCCCN)C(=O)N[C@@H](C)C(=O)O)[C@@H](C)O |
| 46.5 |  | 39 |  |  | C/C=C(\C)C(=O)NCCCC[C@H](NC(=O)[C@H](CCCNC(=N)N)NC(=O)[C@H](C)NC(=O)[C@@H](NC(=O)[C@H](CCC(N)=O)NC(=O)[C@H](CCCCN)NC(=O)[C@@H](N)[C@@H](C)O)[C@@H](C)O)C(=O)N[C@@H](CO)C(=O)N[C@H](C(=O)NCC(=O)NCC(=O)N[C@@H](CCCCN)C(=O)N[C@@H](C)C(=O)O)[C@@H](C)O |
| 159 | 12% | 2 |  |  | CC(C)=CC(=O)NCCCC[C@H](NC(=O)[C@H](CCCNC(=N)N)NC(=O)[C@H](C)NC(=O)[C@@H](NC(=O)[C@H](CCC(N)=O)NC(=O)[C@H](CCCCN)NC(=O)[C@@H](N)[C@@H](C)O)[C@@H](C)O)C(=O)N[C@@H](CO)C(=O)N[C@H](C(=O)NCC(=O)NCC(=O)N[C@@H](CCCCN)C(=O)N[C@@H](C)C(=O)O)[C@@H](C)O |
| 13.7 |  |  |  | 55 | C=CC(=O)NCCCC[C@H](NC(=O)[C@H](CCCNC(=N)N)NC(=O)[C@H](C)NC(=O)[C@@H](NC(=O)[C@H](CCC(N)=O)NC(=O)[C@H](CCCCN)NC(=O)[C@@H](N)[C@@H](C)O)[C@@H](C)O)C(=O)N[C@@H](CO)C(=O)N[C@H](C(=O)NCC(=O)NCC(=O)N[C@@H](CCCCN)C(=O)N[C@@H](C)C(=O)O)[C@@H](C)O |
| 7.8 |  |  |  | 60 | C/C=C/C(=O)NCCCC[C@H](NC(=O)[C@H](CCCNC(=N)N)NC(=O)[C@H](C)NC(=O)[C@@H](NC(=O)[C@H](CCC(N)=O)NC(=O)[C@H](CCCCN)NC(=O)[C@@H](N)[C@@H](C)O)[C@@H](C)O)C(=O)N[C@@H](CO)C(=O)N[C@H](C(=O)NCC(=O)NCC(=O)N[C@@H](CCCCN)C(=O)N[C@@H](C)C(=O)O)[C@@H](C)O |
| 5.1 | inactive |  |  |  | C[C@H](NC(=O)[C@H](CCCCN)NC(=O)CNC(=O)CNC(=O)[C@@H](NC(=O)[C@H](CO)NC(=O)[C@H](CCCCNC(=O)/C=C/c1ccccc1)NC(=O)[C@H](CCCNC(=N)N)NC(=O)[C@H](C)NC(=O)[C@@H](NC(=O)[C@H](CCC(N)=O)NC(=O)[C@H](CCCCN)NC(=O)[C@@H](N)[C@@H](C)O)[C@@H](C)O)[C@@H](C)O)C(=O)O |
| 13.6 |  |  |  | 75 | CC/C=C/C(=O)NCCCC[C@H](NC(=O)[C@H](CCCNC(=N)N)NC(=O)[C@H](C)NC(=O)[C@@H](NC(=O)[C@H](CCC(N)=O)NC(=O)[C@H](CCCCN)NC(=O)[C@@H](N)[C@@H](C)O)[C@@H](C)O)C(=O)N[C@@H](CO)C(=O)N[C@H](C(=O)NCC(=O)NCC(=O)N[C@@H](CCCCN)C(=O)N[C@@H](C)C(=O)O)[C@@H](C)O |
